Like-named read-outs stand apart in the source and are kept apart here.
How the values were obtained:
HDAC1 = HDAC1 (Homo sapiens (Human), UniProt Q13547); test: HDAC subtype enzymatic activity assay, HDAC1; format: biochemical; settings: read-out: HADC1 Inhibition rate (%)
Description: The inhibitory activity of the compounds of the present application on HDAC1-5 and 7-11 was evaluated by an enzymatic activity assay.
1 M Trypsin and 10 M TSA were added, and the plate was incubated at room temperature for 15 min. […] IC50 was obtained by fitting using GraphPadPrism 7.0 software.

[1] = Phase I metabolic stability in monkey liver microsomes (CLMs); format: in vitro ADME, cynomolgus monkeys; set-up: microsomal CLint: dose or concentration left out as unconfirmed; settings: CLM; for Remaining rate (NCF = 60 min): buffer instead of NADPH regeneration system; for Remaining rate (T = 60 min): with NADPH; for CLint scaled at 1 µM / half-life at 1 M / microsomal CLint: cynomolgus monkey, liver microsomes, pH 7.4; for microsomal CLint: read-out: CLint (mic)
Description: Phase I metabolic stability of the test compounds in liver microsomes of CD-1 mice (MLMs), Sprague-Dawley rats (RLMs), beagle dogs (DLMs), cynomolgus monkeys (CLMs), and humans (HLMs) was evaluated.
The animal and human liver microsomes used in the test system were purchased from Xenotech, Corning, or other qualified suppliers and stored in a freezer at a temperature below −60° C. prior to use.
The test samples and control compounds were separately incubated with animal and human liver microsomes at 37±1° C. for a period of incubation time up to 60 min. The samples were removed at the indicated time points, and the reaction was stopped with acetonitrile or other organic solvents containing an internal standard. After centrifugation, the resulting supernatants were assayed by liquid chromatography-tandem mass spectrometry (LC-MS/MS).
73.21 g of dipotassium hydrogenphosphate trihydrate and 10.78 g of potassium dihydrogenphosphate were dissolved in 4000 mL of ultrapure water. The solution was adjusted to pH 7.40±0.10 with 10% phosphoric acid or 1 M potassium hydroxide to make a final concentration of 100 mM.
The test sample powder was prepared into a stock solution at a certain concentration with DMSO or other organic solvents, which was then further diluted with a proper organic solvent.
Microsomes of each species were diluted into a 2× working solution with a 100 mM potassium phosphate buffer. The final concentration of the microsomes in the reaction system was 0.5 mg/mL.
An appropriate amount of nicotinamide adenine dinucleotide phosphate (NADP) and isocitric acid (ISO) powder was weighed out, dissolved in a magnesium chloride solution, and shaken and mixed well. An appropriate amount of isocitrate dehydrogenase (IDH) was added, and the mixture was mixed well by gently turning upside down. The final concentrations in the reaction system were: 1 mM NADP, 1 mM magnesium chloride, 6 mM ISO, and 1 unit/mL IDH.
Incubation was performed in a 96-well plate. Eight incubation plates were prepared and designated T0, T5, T15, T30, T45, T60, Blank60, and NCF60, respectively. The first 6 plates corresponded to reaction time points of 0, 5, 15, 30, 45, and 60 min, respectively. No test sample or control compound was added to the Blank60 plate, and samples were taken after 60 min of incubation. In the NCF60 plate, incubation was performed for 60 min using the potassium phosphate buffer instead of the NADPH regeneration system solution. Three replicates were made for samples in all conditions.
The microsomes and the test sample or control compound were mixed, and then the incubation plates Blank60, T5, T15, T30, T45, and T60 except for TO and NCF60 were placed in a 37° C. water bath for pre-incubation for about 10 min. In the incubation plate TO, a stop solution was first added, followed by addition of the NADPH regeneration system working solution, and 98 μL of the potassium phosphate buffer was added to each sample well of the incubation plate NCF60 to initiate the reaction. After the pre-incubations of the incubation plates Blank60, T5, T15, T30, T45, and T60 were completed, 98 μL of the NADPH regeneration system working solution was added to each sample well to initiate the reaction. The reaction temperature was 37±1° C., the final volume of the reaction was 200 μL, and the reaction system included 0.5 mg/mL microsomes, […], 1 mM NADP, 6 mM ISO, and 1 unit/mL IDH.
At 5 min, 15 min, 30 min, 45 min, and 60 min, a cold stop solution containing an internal standard was added to the reaction plate to stop the reaction.
All the reaction plates after the reaction was stopped were shaken well and centrifuged at 3220×g at 4° C. for 20 min. After the supernatant was diluted according to a certain proportion, LC-MS/MS analysis was performed.
Sample analysis was performed by the liquid chromatography-tandem mass spectrometry (LC-MS/MS) method without standard curves and quality control samples. […]

[2] = test system: Salmonella typhimurium auxotroph strains TA98 and TA100; test: Ames assay (mutagenicity test); format: cell-based; settings: TA98 and TA100, with or without S9
Description: The test strains adopted in the mutagenicity test were Salmonella typhimurium auxotroph strains TA98 and TA100. The test was performed using a 6-well plate in the presence or absence of the S9 metabolic activation system, with both a solvent control group (DMSO) and a positive control group set, with 2 replicate wells per treatment group. Compounds were set at 5 concentrations ranging from 62.5 μg/well to 1000.0 μg/well (equivalent to 312.5 μg/dish to 5000.0 μg/dish in the standard Ames assay). The plate was incubated at 37° C. for 48-72 h, and then bacterial toxicity was measured in each well and the number of mutant colonies in each well was counted. When the number of revertant colonies of the test compound groups is more than twice the number of spontaneous revertant colonies of the solvent control group in a reproducible and dose-dependent manner, the test substance is considered to have positive mutagenicity for the test strain.
In this test, dimethyl sulfoxide (DMSO) was used to dissolve the test substance and served as a negative (solvent) control. In the S9-free group (−S9), 2-nitrofluorene and sodium azide were used as positive controls for TA98 and TA100, respectively; in the S9 group (+S9), 2-aminofluorene was used as a positive control for TA98 and TA100.

Sequence of HDAC1 (Q13547 whole entry): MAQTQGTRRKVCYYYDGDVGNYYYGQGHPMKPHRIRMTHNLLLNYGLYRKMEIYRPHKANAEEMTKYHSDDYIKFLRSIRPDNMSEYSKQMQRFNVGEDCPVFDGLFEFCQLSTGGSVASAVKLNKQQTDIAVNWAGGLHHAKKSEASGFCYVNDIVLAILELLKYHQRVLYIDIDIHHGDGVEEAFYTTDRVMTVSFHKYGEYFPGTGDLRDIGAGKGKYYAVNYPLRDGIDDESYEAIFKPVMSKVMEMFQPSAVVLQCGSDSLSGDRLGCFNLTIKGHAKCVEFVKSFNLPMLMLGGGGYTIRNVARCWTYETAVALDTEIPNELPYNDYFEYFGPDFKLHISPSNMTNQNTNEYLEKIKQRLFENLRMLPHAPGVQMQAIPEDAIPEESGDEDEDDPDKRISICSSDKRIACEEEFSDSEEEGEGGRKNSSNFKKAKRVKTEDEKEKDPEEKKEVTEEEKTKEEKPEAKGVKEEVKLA

Structure (SMILES)	inhibition at 1 µM (HDAC1) [%]	inhibition at 10 µM (HDAC1) [%]	Remaining rate (NCF = 60 min) [1] [%]	Remaining rate (T = 60 min) [1] [%]	CLint scaled at 1 µM [1] [mL/min/kg]	half-life at 1 M [1] [h]	microsomal CLint [1] [µL/min/mg]	Pollutant mutagenicity test results [2]	inhibition at 1 µM (HDAC1; 1 μM) [%]	inhibition at 10 µM (HDAC1; 10 μM) [%]
O=C(N[C@@H]1CCCC[C@H]1N1Cc2ccc(-c3nnc(C(F)F)o3)cc2S1(=O)=O)C(F)F [Compound 2]	-11.9	-3.91	101.5	88.8	< 13	> 2.42	< 9.6	–	–	–
O=C(N[C@H]1[C@H](N2Cc3ccc(-c4nnc(C(F)F)o4)cc3S2(=O)=O)CCCC1(F)F)C(F)F [Compound 61]	–	–	–	–	–	–	–	Negative	–	–
CC(F)(F)C(=O)N[C@@H]1CCCC[C@H]1N1Cc2ccc(-c3nnc(C(F)F)o3)cc2S1(=O)=O [Compound 1]	–	–	94.8	79.1	< 13	> 2.42	< 9.6	–	8.57	-3.17
